Data from US7157430B2, “(Substituted)acyl dipeptidyl inhibitors of the ICE/CED-3 family of cysteine proteases” (Idun Pharmaceuticals, Inc., priority 1998, dated 2007).
Read-outs that look alike come from different tables or passages of the source.

Key:
Format in all cases: biochemical
MCH-5 = MCH-5 (Homo sapiens, UniProt Q14790); assay: Fluorescence enzyme assay, IC50 determination, Mch5
Protocol: (§1) Fluorescence enzyme assays detecting the activity of the compounds of Formula 1 utilizing the recombinant ICE and CPP32 enzymes are performed essentially according to Thornberry et al. (Nature, 356:768:774 (1992)) and Nicholson et al. (Nature, 376:37–43 (1995)) respectively, (herein incorporated by reference) in 96 well microtiter plates. The substrate is Acetyl-Tyr-Val-Ala-Asp-amino-4-methylcoumarin (AMC) for the ICE assay and Acetyl-Asp-Glu-Val-Asp-amino-4-methylcoumarin for the CPP32, Mch2, Mch3 and Mch5 assays. Enzyme reactions are run in ICE buffer (25 mM HEPES, 1 mM EDTA, 0.1% CHAPS, 10% sucrose, pH 7.5) containing 2 mM DTT at room temperature in duplicate.
(§2) The enzyme and the compound of Formula I to be assayed are allowed to preincubate in the microtitre plate wells for 30 minutes at room temperature prior to the addition of substrate to initiate the reaction. Fluorescent AMC product formation is monitored for one hour at room temperature by measuring the fluorescence emission at 460 nm using an excitation wavelength of 360 nm. The fluorescence change in duplicate (control) wells are averaged and the mean values are plotted as a function of inhibitor concentration to determine the inhibitor concentration producing 50% inhibition (IC50). The results of this assay are set forth below in Table 1 and in Table 3 (for Table 3, see Examples 11 through 52).
(§3) The reference compound for this assay was Cbz-ValAlaAsp-H and the values are denoted in Table 1 as “Reference”.

mICE = target: T1, mICE (Mus musculus, UniProt P29452); assay: Fluorescence enzyme assay, IC50 determination, ICE
T1 sequence (P29452 123-296 limits assumed): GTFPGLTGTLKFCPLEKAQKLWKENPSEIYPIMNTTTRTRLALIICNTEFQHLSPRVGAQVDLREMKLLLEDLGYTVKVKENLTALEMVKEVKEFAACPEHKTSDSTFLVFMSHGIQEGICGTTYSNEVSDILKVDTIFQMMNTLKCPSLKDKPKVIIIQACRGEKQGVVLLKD
T1 sequence (P29452 315-402 limits assumed): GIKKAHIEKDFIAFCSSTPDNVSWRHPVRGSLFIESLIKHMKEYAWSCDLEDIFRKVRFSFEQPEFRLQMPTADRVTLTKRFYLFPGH
Protocol: as §1, §2, §3

MCH-3 = target: T2, MCH-3 (Homo sapiens, UniProt P55210); assay: Fluorescence enzyme assay, IC50 determination, Mch3
T2 sequence (P55210 24-198 limits assumed): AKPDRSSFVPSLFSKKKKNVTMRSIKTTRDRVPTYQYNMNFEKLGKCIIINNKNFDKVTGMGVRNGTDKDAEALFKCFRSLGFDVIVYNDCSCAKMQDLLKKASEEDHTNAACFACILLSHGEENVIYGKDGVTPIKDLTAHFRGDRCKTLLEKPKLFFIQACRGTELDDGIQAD
T2 sequence (P55210 207-303 limits assumed): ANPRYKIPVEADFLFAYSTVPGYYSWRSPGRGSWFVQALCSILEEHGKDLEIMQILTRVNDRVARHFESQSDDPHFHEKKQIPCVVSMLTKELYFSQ
Protocol: as §1, §2, §3

CPP32 = target: T3, CPP32 (Homo sapiens, UniProt P42574); assay: Fluorescence enzyme assay, IC50 determination, CPP32
T3 sequence (P42574 29-175 limits assumed): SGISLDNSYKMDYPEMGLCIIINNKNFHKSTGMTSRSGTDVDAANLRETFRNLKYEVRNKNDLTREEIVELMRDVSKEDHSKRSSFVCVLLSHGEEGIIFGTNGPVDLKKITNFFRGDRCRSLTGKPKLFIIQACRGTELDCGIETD
T3 sequence (P42574 176-277 limits assumed): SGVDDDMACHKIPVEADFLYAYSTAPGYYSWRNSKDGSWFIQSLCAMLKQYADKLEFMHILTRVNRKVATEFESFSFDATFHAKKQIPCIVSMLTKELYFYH
Protocol: as §1, §2, §3

MCH-2 = target: T4, MCH-2 (Homo sapiens, UniProt P55212); assay: Fluorescence enzyme assay, IC50 determination, Mch2
T4 sequence (P55212 24-179 limits assumed): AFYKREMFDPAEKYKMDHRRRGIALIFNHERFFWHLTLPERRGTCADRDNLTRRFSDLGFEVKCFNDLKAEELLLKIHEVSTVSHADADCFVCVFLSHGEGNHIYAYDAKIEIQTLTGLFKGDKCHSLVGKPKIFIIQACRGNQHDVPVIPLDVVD
T4 sequence (P55212 194-293 limits assumed): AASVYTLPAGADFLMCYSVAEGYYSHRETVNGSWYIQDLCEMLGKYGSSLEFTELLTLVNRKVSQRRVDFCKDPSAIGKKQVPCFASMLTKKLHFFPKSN
Protocol: as §1, §2, §3

[1] = Table 3, method of Preparation 3A, read-out: MCH5 I50
[2] = Table 3, method of Preparation 3A, read-out: mICE I50
[3] = Table 3, method of Preparation 3A, read-out: MCH3 I50
[4] = Table 3, method of Preparation 3A, read-out: CPP32 I50
[5] = Table 3, method of Preparation 3A, read-out: MCH2 I50
[6] = Ac-DEVD-AMC substrate, 30 min preincubation, room temperature, read-out: MCH-5 IC50
[7] = recombinant enzyme, Ac-YVAD-AMC substrate, 30 min preincubation, room temperature, read-out: mICE IC50
[8] = Ac-DEVD-AMC substrate, 30 min preincubation, room temperature, read-out: MCH-3 IC50
[9] = recombinant enzyme, Ac-DEVD-AMC substrate, 30 min preincubation, room temperature, read-out: CPP32 IC50
[10] = Ac-DEVD-AMC substrate, 30 min preincubation, room temperature, read-out: MCH-2 IC50

Chain of MCH-5 (Q14790 217-374 limits assumed, species assumed): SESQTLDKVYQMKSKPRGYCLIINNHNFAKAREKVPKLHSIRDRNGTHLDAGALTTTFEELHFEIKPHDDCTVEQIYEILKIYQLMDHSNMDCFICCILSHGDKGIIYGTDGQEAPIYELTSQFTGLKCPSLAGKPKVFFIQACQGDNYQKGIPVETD
Chain of MCH-5 (Q14790 385-479 limits assumed, species assumed): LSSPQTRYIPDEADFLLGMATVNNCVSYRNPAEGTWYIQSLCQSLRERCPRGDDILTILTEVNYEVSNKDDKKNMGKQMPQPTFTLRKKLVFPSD

Row | Compound | IC50 (MCH-5; [1]) | IC50 (mICE; [2]) | IC50 (MCH-3; [3]) | IC50 (CPP32; [4]) | IC50 (MCH-2; [5]) | IC50 (MCH-5; [6]) | IC50 (mICE; [7]) | IC50 (MCH-3; [8]) | IC50 (CPP32; [9]) | IC50 (MCH-2; [10])
1 | CC(C)C[C@H](NC(=O)CCSc1cccc2ccccc12)C(=O)N[C@H](C=O)CC(=O)O [Example 24] | 16300 nM | 563 nM | 3600 nM | 412 nM | 2720 nM |  |  |  |  | 
2 | CC(C)C[C@H](NC(=O)CCc1cccc2ccccc12)C(=O)N[C@H](C=O)CC(=O)O [Example 11] | 12200 nM | 1860 nM | 8780 nM | 1590 nM | 4190 nM |  |  |  |  | 
3 | CC(C)C[C@H](NC(=O)COc1cccc2cnccc12)C(=O)N[C@H](C=O)CC(=O)O [Example 33] | 3640 nM | 5140 nM | 3480 nM | 407 nM | 42700 nM |  |  |  |  | 
4 | CC(C)C[C@H](NC(=O)CSc1ccc2ccccc2c1)C(=O)N[C@H](C=O)CC(=O)O [Example 17] | 11000 nM | 792 nM | 2520 nM | 269 nM | 3160 nM |  |  |  |  | 
5 | CC(C)[C@H](NC(=O)COc1cccc2ccccc12)C(=O)N[C@H](C=O)CC(=O)O [Example 2, (3S)-3-[N-((1-Naphthyloxy)Acetyl)Valinyl]Amino-4-Oxobutanoic Acid] |  |  |  |  |  | 1200 nM | 336 nM | 2100 nM | 355 nM | > 10000 nM
6 | CC(C)C[C@H](NC(=O)CCC(=O)c1ccc2ccccc2c1)C(=O)N[C@H](C=O)CC(=O)O [Example 21] | 5230 nM | 543 nM | 7430 nM | 1420 nM | 10300 nM |  |  |  |  | 
7 | CC(C)C[C@H](NC(=O)COc1cccc2ccccc12)C(=O)N[C@H](C=O)CC(=O)O [Example 1, (3S)-3-[N-((1-Naphthyloxy)Acetyl)Leucinyl]Amino-4-Oxobutanoic Acid] |  |  |  |  |  | 680 nM | 535 nM | 1560 nM | 141 nM | 995 nM
8 | CC(C)C[C@H](NC(=O)CNc1cccc2ccccc12)C(=O)N[C@H](C=O)CC(=O)O [Example 8, (3S)-3-[N-((1-Naphthylamino)Acetyl)Leucinyl]Amino-4-Oxobutanoic Acid] |  |  |  |  |  | 7.6 nM | 33 nM | 1320 nM | 13 nM | 37 nM
9 | CC(C)C[C@H](NC(=O)COc1cccc2c1OC(C)(C)C2)C(=O)N[C@H](C=O)CC(=O)O [Example 10, (3S)-3-[N-((2,3-Dihydro-2,2-Dimethyl-Benzofuranyloxy)Acetyl)Leucinyl]Amino-4-Oxobutanoic Acid] |  |  |  |  |  | 6340 nM | 6340 nM | 2320 nM | 241 nM | 13100 nM
10 | CC(C)C[C@H](NC(=O)COc1cccc2ncccc12)C(=O)N[C@H](C=O)CC(=O)O [Example 32] | 4020 nM | 5250 nM | 3850 nM | 412 nM | > 50000 nM |  |  |  |  | 
11 | CC(C)[C@H](NC(=O)COc1c(C(=O)O)ccc2ccccc12)C(=O)N[C@H](C=O)CC(=O)O [Example 6, (3S)-3-[N-((2′-Carboxy-1′-Naphthyloxy)Acetyl)Valinyl]Amino-4-Oxobutanoic Acid] |  |  |  |  |  | 48 nM | 385 nM | 1650 nM | 54 nM | 1430 nM
12 | CC(C)C[C@H](NC(=O)CSc1cccc2ccccc12)C(=O)N[C@H](C=O)CC(=O)O [Example 16] | 7420 nM | 2750 nM | 1740 nM | 195 nM | 1430 nM |  |  |  |  | 
13 | CC(C)C[C@H](NC(=O)COc1ccc2ccccc2c1)C(=O)N[C@H](C=O)CC(=O)O [Example 13] | > 10000 nM | 2570 nM | 8870 nM | 944 nM | 18600 nM |  |  |  |  | 
14 | CC(C)C[C@H](NC(=O)C(C)CC(=O)c1cccc2ccccc12)C(=O)N[C@H](C=O)CC(=O)O (stereo partly shown) [Example 20] | 3250 nM | 4550 nM | 29800 nM | 9880 nM | 24900 nM |  |  |  |  | 
15 | CC(C)C[C@H](NC(=O)CCC(=O)c1cccc2ccccc12)C(=O)N[C@H](C=O)CC(=O)O [Example 19] | 11200 nM | 408 nM | 11300 nM | 967 nM | 11800 nM |  |  |  |  | 
16 | CC(C)C[C@H](NC(=O)CCSc1ccc2ccccc2c1)C(=O)N[C@H](C=O)CC(=O)O [Example 25] | 15000 nM | 611 nM | 5890 nM | 837 nM | 1620 nM |  |  |  |  | 
17 | CC(C)C[C@H](NC(=O)COc1ccc(Cl)c2ccccc12)C(=O)N[C@H](C=O)CC(=O)O [Example 28] | 1690 nM | 429 nM | 3380 nM | 231 nM | 12000 nM |  |  |  |  | 
18 | CC(C)C[C@H](NC(=O)COc1ccnc2ccccc12)C(=O)N[C@H](C=O)CC(=O)O [Example 31] | > 50000 nM | 35300 nM | 4570 nM | 232 nM | > 50000 nM |  |  |  |  | 

Next, values leading:

Row | IC50 (MCH-5; [1]) | IC50 (mICE; [2]) | IC50 (MCH-3; [3]) | IC50 (CPP32; [4]) | IC50 (MCH-2; [5]) | IC50 (MCH-5; [6]) | IC50 (mICE; [7]) | IC50 (MCH-3; [8]) | IC50 (CPP32; [9]) | IC50 (MCH-2; [10]) | Compound
19 | 4340 nM | 2400 nM | 2200 nM | 222 nM | 9750 nM |  |  |  |  |  | CC(C)C[C@H](NC(=O)COc1ccccc1OCc1ccccc1)C(=O)N[C@H](C=O)CC(=O)O [Example 45]
20 | 2240 nM | 13700 nM | 1510 nM | 147 nM | 12500 nM |  |  |  |  |  | CC(C)C[C@H](NC(=O)COc1cccc2cccnc12)C(=O)N[C@H](C=O)CC(=O)O [Example 34]
21 | 1750 nM | 1810 nM | 2740 nM | 324 nM | 11800 nM |  |  |  |  |  | CC(C)C[C@H](NC(=O)COc1cccc2c1CCCC2)C(=O)N[C@H](C=O)CC(=O)O [Example 51]
22 | 9280 nM | 2210 nM | 6820 nM | 545 nM | 21200 nM |  |  |  |  |  | CC(C)C[C@H](NC(=O)COc1ccc(Oc2ccccc2)cc1)C(=O)N[C@H](C=O)CC(=O)O [Example 44]
23 | 1710 nM | 636 nM | 2020 nM | 95 nM | 717 nM |  |  |  |  |  | CC(C)C[C@H](NC(=O)COc1ccccc1-c1ccccc1)C(=O)N[C@H](C=O)CC(=O)O [Example 39]
24 | 4720 nM | 1800 nM | 4410 nM | 346 nM | 18900 nM |  |  |  |  |  | CC(C)C[C@H](NC(=O)COc1ccc(Cc2ccccc2)cc1)C(=O)N[C@H](C=O)CC(=O)O [Example 43]
25 | 4950 nM | 2570 nM | 2310 nM | 162 nM | 28600 nM |  |  |  |  |  | CC(C)C[C@H](NC(=O)COc1ccc2c(c1)CCCC2)C(=O)N[C@H](C=O)CC(=O)O [Example 52]
26 | 8600 nM | 2510 nM | 7250 nM | 570 nM | 33400 nM |  |  |  |  |  | CC(C)C[C@H](NC(=O)COc1ccc(OCc2ccccc2)cc1)C(=O)N[C@H](C=O)CC(=O)O [Example 46]
